Legend:
[1] = Selection of mixed solvent (Table 4); type: physicochemical
[2] = in vivo, cited from earlier work
[3] = cited from earlier work

For `CC1(C)S[C@@H]2[C@H](NC(=O)[C@H](N)c3ccc(O)cc3)C(=O)N2[C@H]1C(=O)O` [阿莫西林], the “dissolution when amount of dimethyl sulfoxide is reduced” value ([1]; 25 g amoxicillin, less than 100 ml dimethyl sulfoxide) is given as “不能完全溶解”, the “volume of dimethyl sulfoxide required to dissolve 25 g amoxicillin as stable solution” value ([1]; from results of 2.2 and 2.3) is given as 100 mL and the gastrointestinal absorption rate ([2]; po) is given as 90%. For the same molecule, the half-life [2] was ~1.02 h and the “stability under acidic conditions” value [3] was “稳定”.

From patent CN105663037A, “一种阿莫西林溶液剂及其制备方法和用途” (Chengdu Qiankun Veterinary Pharmaceutical Co Ltd, priority 2016, dated 2016)
